Where a name gives a salt, the structure may show the parent alone. Marks after values point to notes of the source that are not given here.
Assays:
Assay type in all cases: physicochemical
[1] = Solubility measurement at 25° C. (HPLC of saturated solution); settings: for solubility: 25 °C, organic solvent or mixture; for Solubility (25° C.): monohydrochloride dihydrate
Method: (§1) The solubility of the Compound 1 HCl sample (prepared according to Example 4) was measured according to the procedure for solubility at 25° C. in Table 8 and the procedure for solubility at 50° C. in Table 9.

[2] = Solubility measurement at 50° C. (HPLC of saturated solution); settings: for Solubility (50° C.): monohydrochloride dihydrate; for solubility: 50 °C, organic solvent or mixture
Method: as §1

[3] = Compound 1 hydrochloride polymorph screening; settings: nine polymorphs (Forms I-IX) identified by standard polymorph screening
[4] = 2-Methoxyethanol, by visual assessment
[5] = Dimethylformamide, by visual assessment
[6] = n-Propanol, by visual assessment

For `Cc1nc2c(F)c(-c3cccc(Cl)c3Cl)c(CCC#N)cc2c2c1cc(C1CC3C[C@H]3N1C(=O)C1CC1)n2C1[C@H]2CN[C@@H]1C2` (atropisomer, axis not shown; (Ra)) [Compound 1 HCl, 3-((Ra)-1-((1R,4R,5S)-2-azabicyclo[2.1.1]hexan-5-yl)-2-((1R,3R,5R)-2-(cyclopropanecarbonyl)-2-azabicyclo[3.1.0]hexan-3-yl)-7-(2,3-dichlorophenyl)-6-fluoro-4-methyl-1H-pyrrolo[3,2-c]quinolin-8-yl)propanenitrile monohydrochloride dihydrate], the solubility [1, 4] was > 50 mg/mL, the “Solubility (25° C.)” value [1, 4] was >50* mg/mL and the solubility ([1]; DMSO, by visual assessment) was > 50 mg/mL. The “Solubility (25° C.)” value ([1]; DMSO, by visual assessment) was >50* mg/mL, the solubility [1, 5] was > 50 mg/mL and the “Solubility (25° C.)” value [1, 5] was >50* mg/mL. For the same compound, the solubility ([1]; MeOH, by visual assessment) was > 50 mg/mL, the “Solubility (25° C.)” value ([1]; MeOH, by visual assessment) was >50* mg/mL and the solubility ([1]; Methyl iso-butyl ketone) was 1 to 15 mg/mL. For the same compound, the “Solubility (25° C.)” value ([1]; Methyl iso-butyl ketone) was 1.3 mg/mL, the solubility ([1]; Tetrahydrofuran (THF)) was < 1 mg/mL and the “Solubility (25° C.)” value ([1]; Tetrahydrofuran (THF)) was 0.9 mg/mL. The solubility ([1]; heptane) was 0.01 mg/mL, the solubility ([1]; n-BuOH, by visual assessment) was > 50 mg/mL and the “Solubility (25° C.)” value ([1]; n-BuOH, by visual assessment) was >50* mg/mL. The “Solubility (50° C.)” value [2, 4] was >50* mg/mL, the solubility ([2]; 2-methoxyethanol, by visual assessment) was > 50 mg/mL and the “Solubility (50° C.)” value ([2]; 3% MeOH 0.3% water in EtOAc) was 0.8 mg/mL. For the same compound, the solubility ([2]; 3% MeOH, 0.3% water in EtOAc, 3% MeOH 0.3% water in EtOAc) was < 1 mg/mL, the “Solubility (50° C.)” value ([2]; Acetone) was 19.2 mg/mL and the “Solubility (50° C.)” value ([2]; Chloroform) was 21.2 mg/mL. The solubility ([2]; DMSO, by visual assessment) was > 50 mg/mL, the “Solubility (50° C.)” value ([2]; DMSO, by visual assessment) was >50* mg/mL and the “Solubility (50° C.)” value [2, 5] was >50* mg/mL. For the same compound, the solubility ([2]; EtOH) was 15 to 50 mg/mL, the “Solubility (50° C.)” value ([2]; EtOH) was 22.3 mg/mL and the solubility ([2]; Ethyl formate) was < 1 mg/mL. For the same compound, the “Solubility (50° C.)” value ([2]; Ethyl formate) was 0.6 mg/mL, the solubility ([2]; MeOH, by visual assessment) was > 50 mg/mL and the “Solubility (50° C.)” value ([2]; MeOH, by visual assessment) was >50* mg/mL. The solubility ([2]; acetone) was 15 to 50 mg/mL, the solubility ([2]; chloroform) was 15 to 50 mg/mL and the solubility ([2]; dimethylformamide, by visual assessment) was > 50 mg/mL. The solubility ([2]; heptane) was 0.02 mg/mL, the “Solubility (50° C.)” value ([2]; iso-Propanol (IPA), by visual assessment) was >50* mg/mL and the solubility ([2]; iso-propanol (IPA), by visual assessment) was > 50 mg/mL. For the same compound, the solubility ([2]; n-BuOH, by visual assessment) was > 50 mg/mL, the “Solubility (50° C.)” value ([2]; n-BuOH, by visual assessment) was >50* mg/mL and the solubility [2, 6] was > 50 mg/mL. The “Solubility (50° C.)” value [2, 6] was >50* mg/mL and the “Relative stability of crystalline forms of Compound 1 HCl” value [3] was “most stable form”.
